Test results from the supplement of paper PMC10307832.

What was measured:
Assay in all cases: relative viability (nuclei count vs DMSO), 5 days (fraction); higher = more cells survive
[1] = compound: C/C(=N\NC(=S)N1CCC1)/C2=CC=CC=N2 + CS(=O)(=O)CCNCc1ccc(-c2ccc3ncnc(Nc4ccc(OCc5cccc(F)c5)c(Cl)c4)c3c2)o1 [Lapatinib] (partner 2 µM)
Summary of the method: (§1)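 For relative viability, nuclei counts in treated wells were divided by those in vehicle wells. Lung cancer cell lines had been pin-tool dosed in 1536-well plates the day after seeding and cultured for 5 days, then fixed and stained in one step (final 0.05% Triton X-100, 1% formaldehyde, 1 ug/ml Hoechst) and imaged at 4×. Doses were one drug alone or a fixed anchor-drug dose plus five library-drug doses (not always all listed) in √10 steps, and values are duplicate-plate medians.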

[2] = compound: C/C(=N\NC(=S)N1CCC1)/C2=CC=CC=N2 + Cc1nc(Nc2ncc(C(=O)Nc3c(C)cccc3Cl)s2)cc(N2CCN(CCO)CC2)n1 [Dasatinib] (partner 0.075 µM)
Summary of the method: as §1

[3] = compound: C/C(=N\NC(=S)N1CCC1)/C2=CC=CC=N2 + Nc1nc2[nH]cc(CCc3ccc(C(=O)N[C@@H](CCC(=O)O)C(=O)O)cc3)c2c(=O)[nH]1 [Pemetrexed] (partner 0.2 µM)
Summary of the method: as §1

[4] = compound: C/C(=N\NC(=S)N1CCC1)/C2=CC=CC=N2 + C[C@@H](Oc1cc(-c2cnn(C3CCNCC3)c2)cnc1N)c1c(Cl)ccc(F)c1Cl [Crizotinib] (partner 1 µM)
Summary of the method: as §1

Cell Line	relative viability ([1]; first compound 0.05 µM)	relative viability ([1]; first compound 0.1581 µM)	relative viability ([1]; first compound 0.5 µM)	relative viability ([1]; first compound 1.581 µM)	relative viability ([1]; first compound 5 µM)	relative viability ([2]; first compound 0.05 µM)	relative viability ([2]; first compound 0.1581 µM)	relative viability ([2]; first compound 0.5 µM)	relative viability ([2]; first compound 1.581 µM)	relative viability ([2]; first compound 5 µM)	relative viability ([3]; first compound 0.05 µM)	relative viability ([3]; first compound 0.1581 µM)	relative viability ([3]; first compound 0.5 µM)	relative viability ([3]; first compound 1.581 µM)	relative viability ([3]; first compound 5 µM)	relative viability ([4]; first compound 0.05 µM)	relative viability ([4]; first compound 0.1581 µM)	relative viability ([4]; first compound 0.5 µM)	relative viability ([4]; first compound 1.581 µM)	relative viability ([4]; first compound 5 µM)
LCLC-97TM1	0.0934	0.101	0.0997	0.0662	0.107	0.163	0.161	0.143	0.0911	0.13	0.0782	0.0748	0.0673	0.068	0.0595	0.155	0.307	0.103	0.0898	0.119
HARA	0.102	0.115	0.155	0.0859	0.0828	0.0909	0.0673	0.0699	0.063	0.083	0.218	0.174	0.212	0.141	0.165	0.361	0.227	0.152	0.115	0.0965
HCC-78	0.0064	0.211	0.226	0.158	0.178	0.264	0.256	0.268	0.181	0.157	0.96	0.872	0.854	0.84	0.863	0.338	0.251	0.237	0.142	0.167
NCI-H1666	0.229	0.27	0.273	0.198	0.228	0.335	0.307	0.301	0.28	0.296	0.532	0.638	0.54	0.442	0.473	0.204	0.221	0.216	0.195	0.207
NCI-H2347	0.401	0.394	0.324	0.294	0.541	0.209	0.199	0.26	0.23	0.179	0.33	0.308	0.3	0.27	0.291	0.557	0.438	0.322	0.233	0.302
NCI-H838	0.185	0.186	0.212	0.149	0.164	0.203	0.198	0.223	0.201	0.187	0.223	0.186	0.185	0.19	0.186	0.174	0.175	0.19	0.18	0.15
NCI-H2023	0.0813	0.0823	0.106	0.064	0.0792	0.0588	0.071	0.0685	0.0516	0.0624	0.0924	0.0863	0.0863	0.0559	0.0883	0.1	0.0841	0.08	0.0545	0.0727
201T	0.447	0.578	0.444	0.447	0.351	0.324	0.29	0.282	0.232	0.216	0.292	0.315	0.289	0.294	0.286	0.773	0.983	0.485	0.477	0.321
NCI-H1915	0.195	0.182	0.157	0.136	0.133	0.117	0.132	0.123	0.115	0.142	0.128	0.142	0.163	0.133	0.126	0.469	0.843	0.169	0.152	0.134
NCI-H2009	0.141	0.16	0.151	0.161	0.0978	0.112	0.143	0.145	0.122	0.103	0.0997	0.122	0.134	0.15	0.122	0.112	0.131	0.124	0.149	0.0903
BEN	0.178	0.201	0.21	0.203	0.188	0.142	0.187	0.177	0.171	0.153	0.256	0.318	0.262	0.279	0.311	0.193	0.182	0.244	0.177	0.169
PC-14	0.11	0.112	0.124	0.0912	0.0865	0.0371	0.0372	0.0336	0.023	0.0224	0.0492	0.0611	0.0691	0.0506	0.0521	0.215	0.11	0.0946	0.0983	0.0928
SK-MES-1	0.301	0.293	0.213	0.185	0.2	0.145	0.155	0.133	0.107	0.126	0.248	0.258	0.23	0.177	0.207	0.231	0.214	0.179	0.167	0.177
NCI-H727	0.194	0.222	0.25	0.232	0.267	0.204	0.24	0.236	0.242	0.274	–	–	–	–	–	0.193	0.145	0.138	0.179	0.157
NCI-H1355	0.203	0.238	0.205	0.167	0.18	0.198	0.194	0.187	0.168	0.15	0.195	0.18	0.177	0.189	0.152	0.318	0.63	0.189	0.151	0.172
NCI-H1975	0.132	0.151	0.147	0.13	0.15	0.104	0.0967	0.0846	0.0879	0.0899	0.133	0.144	0.141	0.155	0.145	0.177	0.144	0.159	0.143	0.156
LK-2	0.171	0.25	0.201	0.144	0.199	0.141	0.187	0.17	0.121	0.151	0.0705	0.123	0.0631	0.1	0.0756	0.197	0.255	0.266	0.226	0.215

Cell Line	relative viability ([1]; first compound 0.05 µM)	relative viability ([1]; first compound 0.1581 µM)	relative viability ([1]; first compound 0.5 µM)	relative viability ([1]; first compound 1.581 µM)	relative viability ([1]; first compound 5 µM)	relative viability ([2]; first compound 0.05 µM)	relative viability ([2]; first compound 0.1581 µM)	relative viability ([2]; first compound 0.5 µM)	relative viability ([2]; first compound 1.581 µM)	relative viability ([2]; first compound 5 µM)	relative viability ([3]; first compound 0.05 µM)	relative viability ([3]; first compound 0.1581 µM)	relative viability ([3]; first compound 0.5 µM)	relative viability ([3]; first compound 1.581 µM)	relative viability ([3]; first compound 5 µM)	relative viability ([4]; first compound 0.05 µM)	relative viability ([4]; first compound 0.1581 µM)	relative viability ([4]; first compound 0.5 µM)	relative viability ([4]; first compound 1.581 µM)	relative viability ([4]; first compound 5 µM)
NCI-H661	0.187	0.184	0.2	0.201	0.198	0.196	0.223	0.197	0.2	0.212	0.286	0.278	0.244	0.229	0.223	0.361	0.322	0.263	0.349	0.288
NCI-H441	–	–	–	–	–	0.143	0.15	0.159	0.108	0.156	0.16	0.162	0.129	0.154	0.118	0.241	0.175	0.134	0.11	0.128
EBC-1	0.225	0.195	0.226	0.191	0.161	–	–	–	–	–	–	–	–	–	–	0.173	0.187	0.163	0.162	0.128
HCC-44	0.292	0.184	0.177	0.156	0.232	–	–	–	–	–	0.599	0.52	0.549	0.547	0.424	0.783	0.208	0.186	0.209	0.229
NCI-H1648	–	–	–	–	–	–	–	–	–	–	0.258	0.323	0.329	0.274	0.311	–	–	–	–	–
SW 900	–	–	–	–	–	0.129	0.134	0.112	0.0964	0.248	0.127	0.081	0.0901	0.122	0.196	–	–	–	–	–
ABC-1	0.475	0.513	0.495	0.459	0.456	0.213	0.306	0.195	0.193	0.225	–	–	–	–	–	0.23	0.189	0.2	0.172	0.142
NCI-H1793	0.192	0.169	0.165	0.146	0.197	0.113	0.145	0.151	0.121	0.145	0.158	0.162	0.151	0.112	0.136	–	–	–	–	–
NCI-H1395	0.314	0.424	0.355	0.315	0.412	0.27	0.362	0.315	0.29	0.326	0.313	0.402	0.322	0.32	0.348	–	–	–	–	–
NCI-H1299	0.192	0.221	0.197	0.185	0.143	–	–	–	–	–	–	–	–	–	–	0.16	0.16	0.191	0.19	0.102
ChaGo-K-1	–	–	–	–	–	0.137	0.178	0.17	0.131	0.168	0.172	0.171	0.18	0.161	0.162	0.34	0.339	0.258	0.312	0.279
NCI-H522	–	–	–	–	–	–	0.332	0.494	–	0.416	0.243	0.299	0.284	0.352	0.364	–	–	–	–	–
A549	0.065	0.0607	0.0715	0.0714	0.0609	–	–	–	–	–	–	–	–	–	–	0.0427	0.0518	0.0568	0.044	0.0637
IA-LM	0.0819	0.067	0.0525	0.0618	0.0601	–	–	–	–	–	–	–	–	–	–	0.0891	0.0621	0.0599	0.0518	0.0471
LCLC-103H	–	–	–	–	–	0.123	0.136	0.156	0.103	0.164	0.321	0.301	0.328	0.253	0.325	0.838	0.917	0.321	0.335	0.3
Calu-6	0.132	0.146	0.124	0.128	0.131	–	–	–	–	–	–	–	–	–	–	0.117	0.136	0.128	0.109	0.102
